“And” between values parts separate entries of the source, which are not always exact repeats. Identical values can stand only once.
How the values were obtained:
[1] = Microsomal stability, human; format: in vitro ADME; settings: human liver microsomes
Protocol: (§1) Incubation methods: The metabolic stability assay was performed by incubating each test compound (at 1 μM) with human and mouse liver microsomes (Xenotech, Lot#1210057 and 1310211, respectively) at 37° C. and 0.4 mg/mL protein concentration. The metabolic reaction was initiated by the addition of an NADPH-regenerating system (i.e. NADPH is the cofactor required for CYP450-mediated metabolism) and quenched at various time points over a 60 minute incubation period by the addition of acetonitrile containing diazepam as internal standard. Control samples (containing no NADPH) were included (and quenched at 2, 30 and 60 minutes) to monitor for potential degradation in the absence of cofactor. Analytical conditions: Instrument: Waters Micromass Xevo G2 QTOF coupled to a Waters Acquity UPLC; Detection: Positive electrospray ionisation under MSE mode; Cone Voltage 30 V; Column: Ascentis Express Amide column (50×2.1 mm, 2.7 μm); LC conditions: Gradient cycle time: 4 minutes; Injection volume: 5 μL; Flow rate: 0.4 mL/min; Mobile phase: Acetonitrile-water gradient with 0.05% formic acid Metabolite; Identification: A metabolite screen was not included in this study, however, since data was acquired using MSE mode, which allows for the simultaneous acquisition of low and high collision energy MS spectra, a post-hoc metabolite search may be conducted at a later date if warranted. […]

[2] = tested on: Trypanosoma cruzi (Tulahuen trypomastigotes expressing β-galactosidase, in L6 cells); experiment: In vitro T. cruzi assay for determination of IC50; format: cell-based; settings: Trypanosoma cruzi, TULAHUEN, L6; 96 h incubation
Protocol: The T. cruzi assay uses Tulahuen trypomastigotes expressing the β-galactosidase gene. The parasites were maintained in vitro by serial passage in L6 cells. […] Extracellular trypomastigotes were then removed and NCL compounds were added in seven-point serial dilutions performed in triplicate. Benznidazole (Epichem Pty Ltd.) was included as a control. […] After 4-6 h, a colour change following catabolisation of the reagent by viable T. cruzi was observed and absorbance was read at 530 nm using a Dynex microplate reader. […] For each compound, % inhibition values were used to generate a standard curve from which the IC50 was calculated. Each assay was performed at least twice, and the average was used.

[3] = tested on: Leishmania donovani promastigotes; experiment: L. donovani screening (Alamarblue); format: cell-based; settings: for L. donovani SI: GI50 of macrophages divided by IC50 of parasites; for inhibition at 10 µM: 96 hrs, read-out: reduction of metabolic activity / inhibition of L. donovani
Protocol: L. donovani Screening. Procyclic promastigotes from exponentially growing cultures maintained in DME-L+ Bob additions were used for all assays. Compounds were initially screened for activity at 10 μM. Compounds were diluted in culture media to a […] in 96 well plates. Promastigotes were diluted to a density of ˜8×10^5 cells/ml then added to the assay plate resulting in a final cell density of 4×10^5 cells/ml. in 96 well plates. Cells were incubated for 96 hrs at 27° C. before the addition of Alamarblue (thermofisher). Fluorescence was read at excitation 530 nm and Emission 590 nm. […] Compounds were serially diluted in thirds, in a 96 well plate, in cell growth media so that concentrations ranged from 0.005 to 10 μM and promastigotes added to a final concentration of 1×10^6 cells/ml. Cells were incubated at 27° C. for 72 hours before the addition of alamar blue. Fluorescence was measured as above.

[4] = Microsomal stability, mouse; format: in vitro ADME; settings: mouse liver microsomes
Protocol: as §1

[5] = Cell toxicity assay (WST-1); format: cell-based, mouse; settings: mouse, RAW 264.7 macrophages, RAW 264.7, 24 hours, read-out: GI50 macrophage
Protocol: Cell toxicity assays. Mouse macrophages (RAW 264.7) were grown in RPM11640 media supplemented with L-glutamine and 10% foetal calf serum. Cells were trypsanised when 80% confluent and subcultured every 3-4 days. For cytotoxicity assays cells were diluted to a final cell concentration of 2×10^4 cells/ml and 198 μl added to each well of a 96 well plate. Cells were incubated in a humidified incubator for 2 hours at 37° C. 5% CO2 before the addition of NCL compounds (2 μl/well, previously diluted in DMSO). Campothecin, triton X and DMSO only were used as controls. Cells were exposed to the compounds for 24 hours. The metabolic activity of the cells was determined using the WST-1 assay system (Roche Life Science). The supernatant was removed, 100 μl of PBS with 10% WST-1 was added to each well and incubated for 1 hr before reading absorbance at 450 nm. The selectivity index of the compounds was determined by dividing the IC50 of macrophages by the IC50 against parasites. IC50 was determined via graphpad prism software.

[6] = tested on: Giardia duodenalis (strain WB trophozoites); experiment: Giardia adherence assay; format: cell-based; settings: NCL099 at 11, 38 and 128 μg/ml compared to the control
Protocol: Giardia strain WB was grown until confluent (grown and maintained in TYI-S-33 medium with 10% foetal bovine serum). For the assay, media of a confluent culture was replaced with fresh TYI-S-33 medium. Cultures were then cold shocked (on ice) for 40 minutes to detach trophozoites. The cell density of the cultures was adjusted to 1×10^6 cells/ml and 1 ml was added to each well of a 24 well plate already containing 1 ml of diluted compounds (see below). […] After incubation the coverslips were removed, air-dried and stained with Diff-Quik (a Romanowski stain variant). Coverslips were mounted onto glass slides using polymount. Images at 10× magnification were taken at 5 random locations per coverslip. […] Stock solutions of compounds were prepared in DMSO at 25.6 mg/ml. Compounds were diluted 1:100 in TYI-S-33 medium. A 1:2 serial dilution was then performed in TYI-S-33 medium in 24 well plates.

[7] = Release from Formulation B (Franz diffusion cells); format: physicochemical; settings: absolute ethanol receptor, 32° C., up to 24 hours
Protocol: Franz diffusion cells were utilized to quantify the release rate of NCL 812 and NCL099 from its topical formulations. Five milliliters of absolute ethanol, which was chosen as the desired release medium, was loaded into the receptor chamber. Temperature of the receptor fluid was kept constant, at 32±1° C. using a water jacket. Acetyl cellulose membranes, with pore size of 0.45 μm (Pall Corporation) was selected and placed between donor and receptor chamber. Followed by that, a number of test samples (Formulation B) was loaded into the donor chamber. One milliliter of receptor fluid was collected at regular time intervals of 0.25, 0.50, 0.75, 1, 2, 3, 4, 5, 6, 7, 8 and 24 hours through the sampling port. One milliliter of fresh absolute ethanol was immediately returned to the receptor chamber. UV-HPLC was utilized to analyse the content of the receptor fluids attained.

[8] = tested on: sheep erythrocytes; experiment: Erythrocyte haemolysis assay; format: cell-based; settings: compared to NCL812 and NCL062
Protocol: Whole sheep blood was obtained from Thermofisher scientific. The red blood cells were separated from other blood components via centrifugation at 1500 g for 10 minutes and washed with saline 3 times. Erythrocytes were diluted to a concentration of ˜1×10^10 cells/ml in saline. 50 μl of NCL compounds diluted in DMSO (see below) were added to 1.5 ml Eppendorf tubes and 500 μl of diluted red blood cells were added to each tube. Erythrocytes were incubated with compounds for 30 minutes at 37° C. with gentle shaking (75 rpm). After incubation cells were placed on ice for 5 minutes then centrifuged at 1500 rpm for 10 minutes to pellet cells. The supernatant was removed and serially diluted in saline. Absorbance of the supernatant and dilutions were recorded at 550 nm. Sample lysis was compared relative to cells lysed 100% in distilled water and analysed using GraphPad Prism v6 software.

[9] = tested on: Giardia WB (Giardia duodenalis); experiment: Resazurin Reduction Assay (Example 9); format: cell-based
Protocol: Giardia trophozoites were grown until confluent. The media was replaced with fresh media and cold shocked for 40 minutes. Compounds were prepared in DMSO and serially diluted 2-fold in DMSO starting at with a 1/100 dilution of the stock (e.g. 128 mg/ml stock starting dilution would be […]). 2 μl of dilutions were added to the appropriate wells and 198 ul of TYI-S-33 media added to each well. Cells were diluted to a concentration of ˜500 000 cells/ml and 100 μl were added to each well of the assay plate (except media only control). The assay was incubated in an anaerobic environment (candle jar) for 5 hours at 37° C. The media was removed and replaced with 100 μl of warm PBS then Alamarblue™ added to a concentration of 10%. The samples were incubated in an anaerobic environment until colour development. After incubation, the absorbance of each sample was read at 570 and 630 nm. The percent reduction of resazurin (Alamarblue™) was calculated (using the formula below) and data was analysed with GraphPad Prism v6 software. The formula used to calculate percent reduction of Alamarblue was ((Eoxi630×A570)−(Eoxi570×A630))/((Ered570×C630)−(Ered×C570))×100, Where: Eoxi630=34798, Eoxi570=80586, A570=absorbance at 570 nm, A630=absorbance at 630 nm, Ered570=155677, Ered630=5494, C630=absorbance of negative control well at 630 nm and C570=absorbance of negative control well at 570 nm.

[10] = tested on: S. aureus ATCC 29213; experiment: S. aureus MIC; format: cell-based; settings: MIC after 24 hours
[11] = tested on: T. cruzi infection; settings: cited from earlier work

**Q.** What does the source list for COc1ccccc1/C=N/NC(=N)N/N=C/c1ccccc1OC.Cl [NCL028]?
**A.** rate of degradation [1]: low (low (<0.3)); IC50 [2]: 13 µM; IC50 ([3]; 72 hours): 0.29 ± 0.05 µM; L. donovani SI [3]: highly selective; L. donovani SI ([3]; listed as NCL 028): 27.9; IC50 ([3]; Leishmania donovani, 72 h): 0.37 µM; inhibition at 10 µM ([3]; Leishmania donovani): 100%; rate of degradation [4]: high (high (0.7-0.95)); GI50 at 24 h [5]: 8.1 ± 2.76 µM

**Q.** With CC(C)(C)c1ccc(/C=N/NC(=N)N/N=C/c2ccc(C(C)(C)C)cc2)cc1.Cl [NCL099] as the compound, how does the “number of adherent cells” value [6] read?
**A.** significant decrease

**Q.** What about the “release profile from Formulation B” value [7] of the same compound?
**A.** acceptable release profile

**Q.** What about the “selectivity for bacterial and protozoal cells than mammalian cells” value [8] of the same compound?
**A.** greater selectivity

**Q.** And the IC50 ([3]; Leishmania donovani, 72 h)?
**A.** 0.37 ± 0.04 µM

**Q.** And the inhibition at 10 µM ([3]; Leishmania donovani)?
**A.** 100%

**Q.** And the GI50 at 24 h [5]?
**A.** 7.66 ± 0.56 µM

**Q.** Which “L. donovani SI” value [3] does the source give for C/C(=N\NC(=N)N/N=C(\C)c1ccc(C(C)(C)C)cc1)c1ccc(C(C)(C)C)cc1.Cl [NCL219] here?
**A.** highly selective

**Q.** And the “L. donovani SI” value ([3]; listed as NCL 219)?
**A.** 24.08

**Q.** And the IC50 ([3]; Leishmania donovani, 72 h)?
**A.** 0.8 ± 0.1 µM

**Q.** And the inhibition at 10 µM ([3]; Leishmania donovani)?
**A.** 100%

**Q.** What about the IC50 ([9]; Giardia, 5 h) of the same compound?
**A.** 1.03 µM and 0.4 µg/mL

**Q.** And the MIC ([10]; Staphylococcus aureus, ATCC29213)?
**A.** > 100 µg/mL

**Q.** And the GI50 at 24 h [5]?
**A.** 19.3 ± 3.77 µM

**Q.** With NC(N)=N/N=C(\CC1CCCCC1)c1ccc(Cl)cc1O [NCL237] as the compound, how does the “Giardia WB IC50” value ([9]; IC50 after 5 hours) read?
**A.** 22.8^ ug/ml

**Q.** And the “S. aureus ATCC 29213 MIC” value [10]?
**A.** 4.8 µg/mL

**Q.** Which cure rate ([11]; children with chronic T. cruzi infection, negative serology 3 to 4 years after treatment) does the source give for O=C(Cn1ccnc1[N+](=O)[O-])NCc1ccccc1 [benznidazole] here?
**A.** around 60%

**Q.** For CC1CS(=O)(=O)CCN1/N=C/c1ccc([N+](=O)[O-])o1 (centres unmarked) [nifurtimox], which “patients with gastrointestinal side effects” value ([11]; anorexia, weight loss, nausea, vomiting) is on record?
**A.** up to 70%

— patent US10392363B2, “Methods for treating protozoan infections” (Neoculi Pty Ltd., priority 2014, dated 2019)
